Source: ChEMBL document CHEMBL1909046, “DrugMatrix in vitro pharmacology data”

Assays:
Insulin receptor = Insulin receptor (Rattus norvegicus, UniProt P15127); type: cell membranes, Wistar, Liver, Membrane; further: in other assays of this panel Not Active means under 50% inhibition at 10 µM
Estrogen receptor = molecular target: T1, Estrogen receptor (Homo sapiens, UniProt P03372); conditions: sf9; further: in other assays of this panel Not Active means under 50% inhibition at 10 µM
T1 sequence (P03372 whole entry): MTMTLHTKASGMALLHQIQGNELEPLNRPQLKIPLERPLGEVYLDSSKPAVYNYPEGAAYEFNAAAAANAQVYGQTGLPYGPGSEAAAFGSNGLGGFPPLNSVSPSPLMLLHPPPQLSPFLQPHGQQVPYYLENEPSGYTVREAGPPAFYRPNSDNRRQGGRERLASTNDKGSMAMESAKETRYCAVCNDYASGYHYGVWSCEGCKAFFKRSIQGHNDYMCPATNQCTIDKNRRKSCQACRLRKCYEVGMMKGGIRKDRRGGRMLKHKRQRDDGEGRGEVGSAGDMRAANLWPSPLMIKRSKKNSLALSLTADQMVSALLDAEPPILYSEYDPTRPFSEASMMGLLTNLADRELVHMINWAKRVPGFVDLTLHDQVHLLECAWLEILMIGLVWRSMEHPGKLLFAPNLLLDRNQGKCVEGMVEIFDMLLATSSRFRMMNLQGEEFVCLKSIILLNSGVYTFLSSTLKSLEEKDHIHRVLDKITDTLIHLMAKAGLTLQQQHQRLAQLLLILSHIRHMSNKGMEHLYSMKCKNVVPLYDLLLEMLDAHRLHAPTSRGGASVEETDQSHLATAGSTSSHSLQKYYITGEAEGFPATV

[1] = DRUGMATRIX: GABAA, Muscimol, Central radioligand binding (ligand: [3H] Muscimol); type: cell membranes, Rattus norvegicus, Wistar, Brain, Membrane; conditions: Not Active = under 50% inhibition at 10 µM
Mu-type opioid receptor = Mu-type opioid receptor (Homo sapiens, UniProt P35372); test: DRUGMATRIX: Opiate mu (OP3, MOP) radioligand binding (ligand: [3H] Diprenorphine); type: cell membranes, CHO-K1, Membrane; conditions: cho-k1; Not Active = under 50% inhibition at 10 µM
[2] = DRUGMATRIX: GABAA, Chloride Channel, TBOB radioligand binding (ligand: [3H] TBOB); type: cell membranes, Rattus norvegicus, Wistar, Cerebral cortex, Membrane; conditions: Not Active = under 50% inhibition at 10 µM
Cytochrome P450 1A2 = molecular target: T2, Cytochrome P450 1A2 (Homo sapiens, UniProt P05177); conditions: bti-tn-5b1-4; further: in other assays of this panel Not Active means under 50% inhibition at 10 µM
T2 sequence (P05177 whole entry): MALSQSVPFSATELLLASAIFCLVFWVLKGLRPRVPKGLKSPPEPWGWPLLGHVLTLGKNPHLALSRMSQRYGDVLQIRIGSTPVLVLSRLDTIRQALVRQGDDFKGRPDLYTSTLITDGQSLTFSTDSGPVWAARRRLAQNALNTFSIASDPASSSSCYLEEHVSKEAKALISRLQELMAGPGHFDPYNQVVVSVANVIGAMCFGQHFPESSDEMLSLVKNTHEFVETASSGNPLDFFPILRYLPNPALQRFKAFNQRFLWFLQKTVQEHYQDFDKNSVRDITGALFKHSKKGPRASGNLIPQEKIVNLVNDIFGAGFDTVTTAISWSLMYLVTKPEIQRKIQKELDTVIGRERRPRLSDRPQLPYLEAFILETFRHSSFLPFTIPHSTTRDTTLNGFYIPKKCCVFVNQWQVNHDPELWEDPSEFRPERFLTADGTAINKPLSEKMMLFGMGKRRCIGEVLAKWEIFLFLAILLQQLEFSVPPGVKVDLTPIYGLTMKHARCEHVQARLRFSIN

D(3) dopamine receptor = D(3) dopamine receptor (Homo sapiens, UniProt P35462); test: DRUGMATRIX: Dopamine D3 radioligand binding (ligand: [3H] Spiperone); type: cell membranes, CHO, Membrane
Chain of D(3) dopamine receptor (P35462 whole entry): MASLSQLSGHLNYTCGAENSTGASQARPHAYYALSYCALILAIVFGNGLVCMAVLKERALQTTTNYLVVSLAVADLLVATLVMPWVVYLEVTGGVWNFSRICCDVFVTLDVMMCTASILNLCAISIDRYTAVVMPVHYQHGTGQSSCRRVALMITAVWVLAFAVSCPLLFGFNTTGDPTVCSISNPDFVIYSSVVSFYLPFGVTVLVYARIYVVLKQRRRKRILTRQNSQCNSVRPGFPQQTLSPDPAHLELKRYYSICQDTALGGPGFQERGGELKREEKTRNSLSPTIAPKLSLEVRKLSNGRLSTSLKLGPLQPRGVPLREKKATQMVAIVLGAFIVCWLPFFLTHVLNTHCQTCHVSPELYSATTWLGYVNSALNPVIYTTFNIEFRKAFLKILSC

Chain of Mu-type opioid receptor (P35372 whole entry): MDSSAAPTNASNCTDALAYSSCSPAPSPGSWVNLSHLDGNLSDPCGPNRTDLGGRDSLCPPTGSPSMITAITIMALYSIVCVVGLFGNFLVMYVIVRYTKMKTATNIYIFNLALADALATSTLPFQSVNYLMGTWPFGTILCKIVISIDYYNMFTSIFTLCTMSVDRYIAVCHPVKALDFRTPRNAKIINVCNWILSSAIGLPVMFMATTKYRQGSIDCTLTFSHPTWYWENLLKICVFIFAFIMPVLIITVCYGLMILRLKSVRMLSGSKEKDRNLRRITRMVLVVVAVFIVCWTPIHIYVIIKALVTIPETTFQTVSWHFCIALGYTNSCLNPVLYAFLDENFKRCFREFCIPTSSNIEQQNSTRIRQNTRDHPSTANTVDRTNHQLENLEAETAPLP
Chain of Insulin receptor (P15127 27-759 limits assumed): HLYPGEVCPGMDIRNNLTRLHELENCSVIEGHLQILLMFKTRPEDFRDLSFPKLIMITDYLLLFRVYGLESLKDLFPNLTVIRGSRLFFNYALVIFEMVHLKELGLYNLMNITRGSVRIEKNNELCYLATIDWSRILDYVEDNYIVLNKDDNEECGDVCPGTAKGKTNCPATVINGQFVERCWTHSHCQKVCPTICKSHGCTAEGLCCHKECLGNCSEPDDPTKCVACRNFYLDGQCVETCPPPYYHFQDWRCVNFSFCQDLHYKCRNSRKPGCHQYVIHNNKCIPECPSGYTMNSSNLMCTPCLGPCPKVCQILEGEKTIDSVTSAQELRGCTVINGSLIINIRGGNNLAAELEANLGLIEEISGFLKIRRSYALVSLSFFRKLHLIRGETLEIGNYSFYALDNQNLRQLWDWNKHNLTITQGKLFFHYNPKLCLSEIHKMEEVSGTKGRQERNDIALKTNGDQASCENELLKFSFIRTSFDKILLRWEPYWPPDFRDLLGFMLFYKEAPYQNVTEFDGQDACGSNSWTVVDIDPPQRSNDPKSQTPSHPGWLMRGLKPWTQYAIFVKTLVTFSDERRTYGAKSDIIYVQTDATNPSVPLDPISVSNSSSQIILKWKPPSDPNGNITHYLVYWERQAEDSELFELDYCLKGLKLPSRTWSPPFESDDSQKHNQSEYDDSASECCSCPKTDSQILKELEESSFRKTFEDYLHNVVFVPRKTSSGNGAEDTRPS
Chain of Insulin receptor (P15127 764-1383 limits assumed): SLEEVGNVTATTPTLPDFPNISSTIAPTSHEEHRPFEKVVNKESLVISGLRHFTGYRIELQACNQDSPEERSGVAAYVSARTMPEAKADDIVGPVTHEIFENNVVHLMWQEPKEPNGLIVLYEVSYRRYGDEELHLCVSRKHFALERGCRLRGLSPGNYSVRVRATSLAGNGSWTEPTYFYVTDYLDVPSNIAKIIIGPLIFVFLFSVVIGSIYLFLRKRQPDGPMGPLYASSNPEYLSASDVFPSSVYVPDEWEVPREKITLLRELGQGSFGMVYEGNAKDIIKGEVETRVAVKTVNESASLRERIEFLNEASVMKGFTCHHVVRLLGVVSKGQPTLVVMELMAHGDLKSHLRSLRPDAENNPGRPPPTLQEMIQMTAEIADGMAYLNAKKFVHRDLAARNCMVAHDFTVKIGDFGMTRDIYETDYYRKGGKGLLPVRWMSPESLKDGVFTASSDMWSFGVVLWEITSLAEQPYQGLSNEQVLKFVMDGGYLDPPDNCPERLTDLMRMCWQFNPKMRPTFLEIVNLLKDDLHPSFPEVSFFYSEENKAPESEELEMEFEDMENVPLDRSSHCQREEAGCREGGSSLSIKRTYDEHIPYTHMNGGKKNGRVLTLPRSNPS

Compound | IC50 (Insulin receptor) | IC50 (Estrogen receptor) | IC50 [1] | Ki [1] | IC50 (Mu-type opioid receptor) | IC50 [2] | Ki [2] | IC50 (Cytochrome P450 1A2) | Ki (Cytochrome P450 1A2) | IC50 (D(3) dopamine receptor; cho) | IC50 (D(3) dopamine receptor; read-out: IC50) | Ki (D(3) dopamine receptor; read-out: Ki) | Ki (Insulin receptor) | Ki (Estrogen receptor) | Ki (D(3) dopamine receptor; cho) | IC50 (Insulin receptor; read-out: IC50) | Ki (Insulin receptor; read-out: Ki)
Nn1nnc2ccccc21 | Not Active | Not Active | Not Active | Not Active | Not Active | Not Active | Not Active | Not Active | Not Active | Not Active | – | – | – | – | – | – | –
CCOC(=O)[C@H](CCc1ccccc1)N[C@@H](C)C(=O)N1Cc2ccccc2C[C@H]1C(=O)O | Not Active | Not Active | Not Active | Not Active | Not Active | Not Active | Not Active | Not Active | Not Active | Not Active | – | – | – | – | – | – | –
O=C(c1ccccc1Cl)N1CCC(Cc2ccccc2)CC1 | Not Active | Not Active | Not Active | Not Active | Not Active | Not Active | Not Active | Not Active | Not Active | Not Active | – | – | – | – | – | – | –
Clc1cc2c(cc1Cl)Oc1cc(Cl)c(Cl)cc1O2 [2,3,7,8-TETRACHLORODIBENZO-P-DIOXIN] | Not Active | Not Active | Not Active | Not Active | – | Not Active | Not Active | Not Active | Not Active | Not Active | – | – | – | – | – | – | –
CCCCCC[C@H]1C(=O)O[C@H](C)[C@H](NC(=O)c2cccc(NC=O)c2O)C(=O)O[C@@H](C)[C@@H]1OC(=O)CC(C)C [ANTIMYCIN A] | Not Active | Not Active | Not Active | Not Active | Not Active | Not Active | Not Active | Not Active | Not Active | Not Active | – | – | – | – | – | – | –
CO[C@H]1[C@@H](O)[C@H](N)[C@@H](O[C@H]2O[C@H]([C@H](C)N)CC[C@H]2N)[C@H](O)[C@@H]1N(C)C(=O)CN [ASTROMICIN] | Not Active | Not Active | Not Active | Not Active | Not Active | Not Active | Not Active | Not Active | Not Active | Not Active | – | – | – | – | – | – | –
CC[C@H]1OC(=O)[C@H](C)[C@@H](O[C@H]2C[C@@](C)(OC)[C@@H](O)[C@H](C)O2)[C@H](C)[C@@H](O[C@@H]2O[C@H](C)C[C@H](N(C)C)[C@H]2O)[C@](C)(O)C[C@@H](C)CN(C)[C@H](C)[C@@H](O)[C@]1(C)O [AZITHROMYCIN] | Not Active | Not Active | Not Active | Not Active | Not Active | Not Active | Not Active | Not Active | Not Active | Not Active | – | – | – | – | – | – | –
CC(C)(C)c1ccc(S(=O)(=O)/C=C/C#N)cc1 [BAY-11-7085] | Not Active | Not Active | Not Active | Not Active | Not Active | Not Active | Not Active | Not Active | Not Active | – | 3460 nM | 1170 nM | – | – | – | – | –
CCc1oc2ccccc2c1C(=O)c1cc(Br)c(O)c(Br)c1 [BENZBROMARONE] | Not Active | Not Active | Not Active | Not Active | Not Active | Not Active | Not Active | Not Active | Not Active | Not Active | – | – | – | – | – | – | –
O=c1cc(-c2ccccc2)oc2ccc3ccccc3c12 [BETA-NAPHTHOFLAVONE] | Not Active | Not Active | Not Active | Not Active | Not Active | Not Active | Not Active | Not Active | Not Active | Not Active | – | – | – | – | – | – | –
CS(=O)(=O)OCCCCOS(C)(=O)=O [BUSULFAN] | Not Active | Not Active | Not Active | Not Active | Not Active | Not Active | Not Active | Not Active | Not Active | Not Active | – | – | – | – | – | – | –
COc1cc(CNC(=O)CCCC/C=C/C(C)C)ccc1O [CAPSAICIN] | Not Active | Not Active | Not Active | Not Active | Not Active | Not Active | Not Active | – | – | Not Active | – | – | – | – | – | – | –
NC(=O)N1c2ccccc2C=Cc2ccccc21 [CARBAMAZEPINE] | Not Active | Not Active | Not Active | Not Active | Not Active | Not Active | Not Active | Not Active | Not Active | Not Active | – | – | – | – | – | – | –
CCOC(=O)n1ccn(C)c1=S [CARBIMAZOLE] | Not Active | Not Active | Not Active | Not Active | Not Active | Not Active | Not Active | Not Active | Not Active | Not Active | – | – | – | – | – | – | –
CCC[C@@H]1C[C@@H](C(=O)N[C@@H]([C@H]2O[C@H](SC)[C@H](O)[C@@H](O)[C@H]2O)[C@H](C)Cl)N(C)C1 [CLINDAMYCIN] | Not Active | Not Active | Not Active | Not Active | Not Active | Not Active | Not Active | – | – | Not Active | – | – | – | – | – | – | –
CCOC(=O)C1=C(C)NC(C)=C(C(=O)OC)C1c1cccc(Cl)c1Cl (stereo not given) [FELODIPINE] | Not Active | Not Active | Not Active | Not Active | Not Active | Not Active | Not Active | – | – | Not Active | – | – | – | – | – | – | –
Cc1cn[nH]c1 [FOMEPIZOLE] | Not Active | Not Active | Not Active | Not Active | Not Active | Not Active | Not Active | – | – | Not Active | – | – | – | – | – | – | –
Cc1cnc(C(=O)NCCc2ccc(S(=O)(=O)NC(=O)NC3CCCCC3)cc2)cn1 [GLIPIZIDE] | Not Active | Not Active | Not Active | Not Active | Not Active | Not Active | Not Active | – | – | Not Active | – | – | – | – | – | – | –
C/C=C\c1ccc(O)c(OC)c1 [ISOEUGENOL] | Not Active | Not Active | Not Active | Not Active | Not Active | Not Active | Not Active | – | – | Not Active | – | – | – | – | – | – | –
NC[C@H]1O[C@H](O[C@H]2[C@H](O)[C@@H](O[C@H]3O[C@H](CO)[C@@H](O)[C@H](N)[C@H]3O)[C@H](N)C[C@@H]2N)[C@H](O)[C@@H](O)[C@@H]1O [KANAMYCIN] | Not Active | Not Active | Not Active | Not Active | Not Active | Not Active | Not Active | – | – | Not Active | – | – | – | – | – | – | –
OCCN1CCN(CCCN2c3ccccc3Sc3ccc(Cl)cc32)CC1 [PERPHENAZINE] | Not Active | Not Active | Not Active | Not Active | Not Active | Not Active | Not Active | – | – | Not Active | – | – | – | – | – | – | –
COBALT(II) ACETYLACETONATE | Not Active | Not Active | Not Active | Not Active | – | Not Active | Not Active | Not Active | Not Active | Not Active | – | – | Not Active | Not Active | Not Active | – | –
INSULIN HUMAN | – | Not Active | Not Active | Not Active | – | Not Active | Not Active | Not Active | Not Active | Not Active | – | – | – | Not Active | Not Active | 1.93 nM | 1.82 nM
POLYVINYL ALCOHOL | Not Active | Not Active | Not Active | Not Active | – | Not Active | Not Active | Not Active | Not Active | Not Active | – | – | Not Active | Not Active | Not Active | – | –
